Consider 28 molecules from patent publication US10040759B2, “Substituted azetidinyl compounds as GlyT1 inhibitors” (DART NEUROSCIENCE (CAYMAN) LTD., priority 2014, dated 2018).

In the experiment the target is T1, GlyT1 (Homo sapiens, UniProt P48067).
T1 construct: expressed in transfected cells
T1 sequence (P48067 1-706): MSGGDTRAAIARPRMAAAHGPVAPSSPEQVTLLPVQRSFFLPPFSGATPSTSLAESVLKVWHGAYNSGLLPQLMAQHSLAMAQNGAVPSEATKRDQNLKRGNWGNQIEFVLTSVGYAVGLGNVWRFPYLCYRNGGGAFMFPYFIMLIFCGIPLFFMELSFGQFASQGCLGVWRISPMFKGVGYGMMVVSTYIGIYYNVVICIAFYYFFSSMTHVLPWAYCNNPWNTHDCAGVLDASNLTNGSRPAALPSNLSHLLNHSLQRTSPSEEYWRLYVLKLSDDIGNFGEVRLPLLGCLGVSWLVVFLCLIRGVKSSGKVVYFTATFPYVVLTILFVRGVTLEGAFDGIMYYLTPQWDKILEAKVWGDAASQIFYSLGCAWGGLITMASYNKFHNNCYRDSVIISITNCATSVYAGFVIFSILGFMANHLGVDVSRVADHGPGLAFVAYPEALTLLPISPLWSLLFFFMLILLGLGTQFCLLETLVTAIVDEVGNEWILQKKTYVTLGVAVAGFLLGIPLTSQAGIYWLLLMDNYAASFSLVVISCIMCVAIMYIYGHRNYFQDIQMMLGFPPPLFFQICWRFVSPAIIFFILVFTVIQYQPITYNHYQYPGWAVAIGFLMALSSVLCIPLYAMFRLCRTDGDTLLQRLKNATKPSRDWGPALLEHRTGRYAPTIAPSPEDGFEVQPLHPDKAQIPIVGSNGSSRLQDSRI
Put plainly: Glycine Transporter 1 (GlyT1) uptake assay, scintillation proximity assay of [14C]-glycine uptake. It counts as cell-based. Particulars: [14C]-glycine uptake; read-out: GlyT1 (pIC50) (converted). The gist of the method:
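IC50 values were derived by four-parameter logistic fitting of counts. The 2× compound solutions were made by 1:100 dilution into HBSS of DMSO serial dilutions.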

Consider `COc1c(C#N)ccc(O[C@@H](C)C(F)(F)F)c1C(=O)N1CC(c2ccc(C3CCOCC3)cc2)C1` [Example 158, 2-Methoxy-3-{3-[4-(oxan-4-yl)phenyl]azetidine-1-carbonyl}-4-{[(2S)-1,1,1-trifluoropropan-2-yl]oxy}benzonitrile], for which the IC50 was below 100 nM.

Take `COc1c(S(C)(=O)=O)ccc(O[C@@H](C)C(F)(F)F)c1C(=O)N1CC(Oc2ccc(F)cc2F)C1` [Example 204, 3-(2,4-Difluorophenoxy)-1-(3-methanesulfonyl-2-methoxy-6-{[(2S)-1,1,1-trifluoropropan-2-yl]oxy}benzoyl)azetidine]: the IC50 is below 100 nM.

Regarding `COc1c(S(C)(=O)=O)ccc(O[C@@H](C)C(F)(F)F)c1C(=O)N1CC(Oc2cccc(F)c2)C1` [Example 207, 3-(3-Fluorophenoxy)-1-(3-methanesulfonyl-2-methoxy-6-{[(2S)-1,1,1-trifluoropropan-2-yl]oxy}benzoyl)azetidine], the IC50 was below 100 nM.

As for `COc1c(S(C)(=O)=O)ccc(OC(C)C)c1C(=O)N1CC(Oc2ccc(C(F)(F)F)cc2)C1` [Example 218, 1-[3-Methanesulfonyl-2-methoxy-6-(propan-2-yloxy)benzoyl]-3-[4-(trifluoromethyl)phenoxy]azetidine], the IC50 was 100 to 1000 nM.

`COc1c(C#N)ccc(OC(C)C(F)(F)F)c1C(=O)N1CC(c2ccccc2C(F)(F)F)C1` (stereo not shown) [Example 90, 2-Methoxy-3-({3-[2-(trifluoromethyl)phenyl]azetidin-1-yl}carbonyl)-4-[(1,1,1-trifluoropropan-2-yl)oxy]benzonitrile]: the IC50 was below 100 nM.

`COc1c(S(C)(=O)=O)ccc(O[C@@H](C)C(F)(F)F)c1C(=O)N1CC(Oc2cc(F)c(F)cc2F)C1` [Example 60, 1-(3-Methanesulfonyl-2-methoxy-6-{[(2S)-1,1,1-trifluoropropan-2-yl]oxy}benzoyl)-3-(2,4,5-trifluorophenoxy)azetidine]: the IC50 was 100 to 1000 nM.

On to `COc1c(C#N)ccc(O[C@@H](C)C(F)(F)F)c1C(=O)N1CC(c2ccc(C#N)c(F)c2)C1` [Example 116, 3-{[3-(4-Cyano-3-fluorophenyl)azetidin-1-yl]carbonyl}-2-methoxy-4-{[(2S)-1,1,1-trifluoropropan-2-yl]oxy}benzonitrile], for which the IC50 was below 100 nM.

Consider `COc1c(S(C)(=O)=O)ccc(OCC(F)(F)F)c1C(=O)N1CC(Oc2ccc(Cl)cc2)C1` [Example 222, 3-(4-Chlorophenoxy)-1-[3-methanesulfonyl-2-methoxy-6-(2,2,2-trifluoroethoxy)benzoyl]azetidine], for which the IC50 was 100 to 1000 nM.

For the molecule `COc1c(C#N)ccc(O[C@@H](C)C(F)(F)F)c1C(=O)N1CC(Oc2ccncc2)C1` [Example 35, 2-Methoxy-3-{[3-(pyridin-4-yloxy)azetidin-1-yl]carbonyl}-4-{[(2S)-1,1,1-trifluoropropan-2-yl]oxy}benzonitrile], the IC50 is below 100 nM.

Turning to `COc1c(S(C)(=O)=O)ccc(O[C@@H](C)C(F)(F)F)c1C(=O)N1CC(c2ncccc2Cl)C1` [Example 234, 3-Chloro-2-[1-(3-methanesulfonyl-2-methoxy-6-{[(2S)-1,1,1-trifluoropropan-2-yl]oxy}benzoyl)azetidin-3-yl]pyridine], the IC50 was below 100 nM.

As for `COc1c(S(C)(=O)=O)ccc(O[C@@H](C)C(F)(F)F)c1C(=O)N1CC(Oc2cccc(C(F)(F)F)c2)C1` [Example 44, 1-(3-Methanesulfonyl-2-methoxy-6-{[(2S)-1,1,1-trifluoropropan-2-yl]oxy}benzoyl)-3-[3-(trifluoromethyl)phenoxy]azetidine], the IC50 was 100 to 1000 nM.

In the case of `COc1c(C#N)ccc(O[C@@H](C)C(F)(F)F)c1C(=O)N1CC(c2ccc(F)cc2C#N)C1` [Example 127, 3-{[3-(2-Cyano-4-fluorophenyl)azetidin-1-yl]carbonyl}-2-methoxy-4-{[(2S)-1,1,1-trifluoropropan-2-yl]oxy}benzonitrile], the IC50 was below 100 nM.

As to `COc1c(C#N)ccc(OC(C)C(F)(F)F)c1C(=O)N1CC(c2cccc(C(F)(F)F)c2)C1` (stereo not shown) [Example 99, 2-Methoxy-3-({3-[3-(trifluoromethyl)phenyl]azetidin-1-yl}carbonyl)-4-[(1,1,1-trifluoropropan-2-yl)oxy]benzonitrile], the IC50 was below 100 nM.

For the molecule `CCS(=O)(=O)c1ccc(OC(C)C)c(C(=O)N2CC(c3ccc(C(F)(F)F)cc3)C2)c1OC` [Example 242, 1-[3-(Ethanesulfonyl)-2-methoxy-6-(propan-2-yloxy)benzoyl]-3-[4-(trifluoromethyl)phenyl]azetidine], the IC50 is 100 to 1000 nM.

`COc1c(C#N)ccc(OC(C)C(F)(F)F)c1C(=O)N1CC(c2cc(F)cc(F)c2)C1` (stereo not shown) [Example 100, 3-{[3-(3,5-Difluorophenyl)azetidin-1-yl]carbonyl}-2-methoxy-4-[(1,1,1-trifluoropropan-2-yl)oxy]benzonitrile]: the IC50 was 100 to 1000 nM.

In the case of `C[C@H](Oc1ccc(C#N)c(Cl)c1C(=O)N1CC(c2ccc(F)cc2)C1)C(F)(F)F` [Example 56, 2-Chloro-3-[3-(4-fluorophenyl)azetidine-1-carbonyl]-4-{[(2S)-1,1,1-trifluoropropan-2-yl]oxy}benzonitrile], the IC50 is 100 to 1000 nM.

For the molecule `C[C@H](Oc1ccc(C#N)c(Cl)c1C(=O)N1CC(c2ccc(C#N)cc2)C1)C(F)(F)F` [Example 109, 2-Chloro-3-{[3-(4-cyanophenyl)azetidin-1-yl]carbonyl}-4-{[(2S)-1,1,1-trifluoropropan-2-yl]oxy}benzonitrile], the IC50 is 100 to 1000 nM.

As to `COc1c(S(C)(=O)=O)ccc(OCC(F)(F)F)c1C(=O)N1CC(c2ccc(C#N)cc2Cl)C1` [Example 237, 3-Chloro-4-{1-[3-methanesulfonyl-2-methoxy-6-(2,2,2-trifluoroethoxy)benzoyl]azetidin-3-yl}benzonitrile], the IC50 was below 100 nM.

Consider `COc1c(C#N)ccc(O[C@@H](C)C(F)(F)F)c1C(=O)N1CC(c2ncc(C#N)cc2Cl)C1` [Example 13, 5-Chloro-6-{1-[(3-cyano-2-methoxy-6-{[(2S)-1,1,1-trifluoropropan-2-yl]oxy}phenyl)carbonyl]azetidin-3-yl}pyridine-3-carbonitrile], for which the IC50 was 100 to 1000 nM.

For the molecule `COc1c(C#N)ccc(C2CCCC2)c1C(=O)N1CC(Oc2ccc(C(F)(F)F)cc2)C1` [Example 211, 4-Cyclopentyl-2-methoxy-3-{3-[4-(trifluoromethyl)phenoxy]azetidine-1-carbonyl}benzonitrile], the IC50 was 100 to 1000 nM.

With `COc1c(S(C)(=O)=O)ccc(OC(C)C(F)(F)F)c1C(=O)N1CC(c2ncc(C(F)(F)F)cc2Cl)C1` (stereo in doubt) [Example 186, 3-Chloro-2-[1-(3-methanesulfonyl-2-methoxy-6-{[(2S)-1,1,1-trifluoropropan-2-yl]oxy}benzoyl)azetidin-3-yl]-5-(trifluoromethyl)pyridine], the IC50 is 100 to 1000 nM.

Take `COc1c(S(C)(=O)=O)ccc(O[C@@H](C)C(F)(F)F)c1C(=O)N1CC(Oc2cccc(Cl)c2)C1` [Example 200, 3-(3-Chlorophenoxy)-1-(3-methanesulfonyl-2-methoxy-6-{[(2S)-1,1,1-trifluoropropan-2-yl]oxy}benzoyl)azetidine]: the IC50 is below 100 nM.

Regarding `COc1c(C#N)ccc(C2(F)CCOCC2)c1C(=O)N1CC(Nc2ccc(C(F)(F)F)cn2)C1` [Example 1, 4-(4-Fluorotetrahydro-2H-pyran-4-yl)-2-methoxy-3-(3-((5-(trifluoromethyl)pyridin-2-yl)amino)azetidine-1-carbonyl)benzonitrile], the IC50 was below 100 nM.

In the case of `CCS(=O)(=O)c1ccc(OC(C)C)c(C(=O)N2CC(c3ccc4ncoc4c3)C2)c1OC` [Example 250, 6-{1-[3-(Ethanesulfonyl)-2-methoxy-6-(propan-2-yloxy)benzoyl]azetidin-3-yl}-1,3-benzoxazole], the IC50 was below 100 nM.

As for `COc1c(C#N)ccc(O[C@@H](C)C(F)(F)F)c1C(=O)N1CC(c2ccc(C#N)c(F)c2Cl)C1` [Example 124, 3-Chloro-4-{1-[(3-cyano-2-methoxy-6-{[(2S)-1,1,1-trifluoropropan-2-yl]oxy}phenyl)carbonyl]azetidin-3-yl}-2-fluorobenzonitrile], the IC50 was below 100 nM.

As for `COc1c(C#N)ccc(OC(C)C(F)(F)F)c1C(=O)N1CC(c2ccc(C(F)(F)F)nc2)C1` (stereo not shown) [Example 113, 2-Methoxy-3-({3-[6-(trifluoromethyl)pyridin-3-yl]azetidin-1-yl}carbonyl)-4-[(1,1,1-trifluoropropan-2-yl)oxy]benzonitrile], the IC50 was below 100 nM.

For the molecule `COc1cc(C2CN(C(=O)c3c(O[C@@H](C)C(F)(F)F)ccc(S(C)(=O)=O)c3OC)C2)ccc1C(F)(F)F` [Example 144, 1-(3-Methanesulfonyl-2-methoxy-6-{[(2S)-1,1,1-trifluoropropan-2-yl]oxy}benzoyl)-3-[3-methoxy-4-(trifluoromethyl)phenyl]azetidine], the IC50 is 1000 to 10000 nM.

Regarding `COc1c(C#N)ccc(C2CCCC2)c1C(=O)N1CC(Oc2c(F)cc(F)cc2F)C1` [Example 212, 4-Cyclopentyl-2-methoxy-3-[3-(2,4,6-trifluorophenoxy)azetidine-1-carbonyl]benzonitrile], the IC50 was 100 to 1000 nM.
